Reference: patent US8728797B2, “Yeast membrane protein expression system and its application in drug screening” (priority 2001, dated 2014)
Marks after values point to notes of the source that are not given here.

Tests used:
[1] = tested on: S. cerevisiae AD-BEN^R (Ben^Rp); assay: Checkerboard chemosensitisation to fluconazole; assay type: cell-based
Procedure: (§1) The assays were conducted, as described in Materials and methods for Example 4, in the presence of the indicated concentrations of fluconazole and KN20. D indicates cell death as measured by a failure to recover any colony forming units when samples from microtitre plate wells were cultured on solid YPD medium.
(§2) Checkerboard drug susceptibility assays were used to measure the chemosensitisation of cells to fluconazole by test compounds such as Pdr5p inhibitors. Fluconazole concentration in the CSM-URA medium was varied in one dimension (between 0 and 80 μg/ml) and the concentration of the test compound was varied in the second dimension (between 0 and 40 μM). Cell inocula, growth conditions and the optical determination of growth were identical to standard liquid MIC determinations. The assays were conducted in 6 by 6 well arrays centred in a 96 well microtitre plate using buffered CSM-URA medium at pH 7.0, with fluconazole and/or peptide included in each well at the indicated concentration.

[2] = tested on: S. cerevisiae AD-ERG11 (Erg11p); assay: Checkerboard chemosensitisation to fluconazole; assay type: cell-based
Procedure: as §1, §2

Cdr1p ATPase = biological target: T1, Cdr1p ATPase (Candida albicans, UniProt P43071, E1416A/I916V/K1177E/L1021S/Q214E/T842S/Y427F); assay: Oligomycin sensitive ATPase/NTPase activity of AD1002 plasma membranes; assay type: biochemical, C. albicans
T1 construct: expressed in transfected cells; host or cells: S. cerevisiae AD1-8u- with pKEN1002 integrated at the PDR5 locus (strain AD1002), plasma membrane fraction
Procedure: Membrane fractions were isolated from S. cerevisiae AD1002 (▪) or parental AD1-8u^− cells (●). ATPase assays were carried out at 30° C. for 30 min, as described in Materials and methods for Example 2. The oligomycin-sensitive activity was determined as the difference in ATPase activity in the presence and absence of 20 μM oligomycin. […] The results are the means (+/−SD) of four determinations carried out on two membrane preparations.
(B) Inhibition profile with KN20 on the oligomycin-sensitive Cdr1p ATPase activity of plasma membranes from AD1002 minus the oligomycin-sensitive ATPase activity of plasma membranes from the isogenic AD1-8u^− strain.
(§3) Yeast were grown in YEPD, pH 5.5 at 30° C. until they reached late-exponential phase of growth (OD600 nm=7), washed twice in ice-cold distilled water, and incubated on ice for 30 min to minimize glucose-stimulated Pma1p activity. Cells were resuspended in homogenising medium (50 mM Tris pH 7.5, 2 mM EDTA and 1 mM phenylmethylsulfonyl fluoride) and disrupted using a Braun Homogeniser. Cell debris and unbroken cells were removed by centrifuging at 2,000×g at 4° C. for 10 min. A crude membrane fraction was isolated from the cell-free supernatant by centrifuging at 30,000×g at 4° C. for 45 min. Plasma membranes were prepared by centrifugation of the supernatant obtained after selective precipitation of mitochondria at pH 5.2 as described previously (Goffeau, A. and Dufour, J. P., 1988). The plasma membranes were resuspended in 10 mM Tris pH 7.0, 0.5 mM EDTA and 20% [v/v] glycerol and stored at −80° C. Protein was determined using a micro-Bradford (Bio-Rad Laboratories, Hercules, Calif. [Bradford, M. M., 1976]) assay with gamma-globulin as standard. Nucleotide triphosphatase activity was measured by incubating the plasma membrane fractions (10 μg) at 30° C. in a final volume of 120 μl containing 6 mM NTP, 7 mM MgSO4 in 59 mM MES-Tris buffer pH 6.0-8.0. To eliminate possible contributions from nonspecific phosphatases, vacuolar, or mitochondrial ATPases, 0.2 mM ammonium molybdate, 50 mM KNO3 and 10 mM NaN3, respectively, were included in assays (Monk B C, et al, 1991). Other ATPase inhibitors (20 μM oligomycin, 20 μM aurovertin B or 100 μM vanadate were added to the reaction where indicated. After 30 min the reaction was stopped by adding 130 μl of a solution containing 1% (w/v) SDS, 0.6 M H2SO4, 1.2% (w/v) ammonium molybdate and 1.6% (w/v) ascorbic acid. Inorganic phosphate released from NTPs was measured at 750 nm after 10 min incubation at room temperature.

[3] = tested on: S. cerevisiae AD124567 (Pdr5p); assay: Checkerboard chemosensitisation to fluconazole; assay type: cell-based
Procedure: (A) Checkerboard drug susceptibility assay of AD124567 in the presence of the indicated concentrations of fluconazole and KN20. (B) Disk drug susceptibility assay of AD124567. This assay was conducted, as described in Materials and methods for example 4, in the absence or presence of fluconazole (120 μg/ml), and in the presence of (1) KN0 (47 nanomole), (2) KN20 (47 nanomole) or (0) control amounts of DMSO applied to disks
as §2

Pdr5p ATPase = biological target: T2, Pdr5p ATPase (Saccharomyces cerevisiae, UniProt P33302); assay: Oligomycin sensitive ATPase activity of AD124567 plasma membranes; assay type: biochemical, S. cerevisiae
T2 construct: plasma membranes from the AD124567 yeast strain overexpressing Pdr5p; endogenous in cells; host or cells: S. cerevisiae AD124567 (pdr1-3, PDR5 intact), plasma membrane fraction
Procedure: (A) Inhibition profiles of oligomycin-sensitive Pdr5p ATPase activity by the purified peptides D-NH2-asparagine-tryptophan-tryptophan-lysine-valine-arginine-arginine-arginine-CONH2 (KN0) and its singly substituted Mtr-derivative KN20. (B) Inhibition profile with KN20 on the oligomycin-sensitive Cdr1p ATPase activity of plasma membranes from AD1002 minus the oligomycin-sensitive ATPase activity of plasma membranes from the isogenic AD1-8u^− strain.
as §3, with “The plasma membranes were resuspended in 10 mM Tris pH 7.0, 0.5 mM EDTA and 20% [v/v] glycerol and stored at −80° C.” left out, “To eliminate possible contributions from nonspecific phosphatases, vacuolar, or mitochondrial ATPases, 0.2 mM ammonium molybdate, 50 mM KNO3 and 10 mM NaN3, respectively, were included in assays (Monk B C, et al, 1991).” left out

[4] = tested on: S. cerevisiae AD12345678u-; assay: Checkerboard chemosensitisation to fluconazole; assay type: cell-based
Procedure: as §2

[5] = tested on: S. cerevisiae 4 (CgPdh1p); assay: Checkerboard chemosensitisation to fluconazole; assay type: cell-based
Procedure: as §2

C. tropicalis IFO0618 = assay: Checkerboard chemosensitisation to fluconazole; assay type: cell-based
Procedure: as §2

C. krusei B2399 = assay: Checkerboard chemosensitisation to fluconazole; assay type: cell-based
Procedure: as §2

[6] = tested on: S. cerevisiae 27A (CaCdr2p); assay: Checkerboard chemosensitisation to fluconazole; assay type: cell-based
Procedure: as §2

C. albicans FR2 (Ben^Rp) = assay: Checkerboard chemosensitisation to fluconazole; assay type: cell-based
Procedure: as §2

[7] = tested on: S. cerevisiae 1B (CgCdr1p); assay: Checkerboard chemosensitisation to fluconazole; assay type: cell-based
Procedure: as §2

C. dubliniensis CD36 = assay: Checkerboard chemosensitisation to fluconazole; assay type: cell-based
Procedure: as §2

C. glabrata CBS138 = assay: Checkerboard chemosensitisation to fluconazole; assay type: cell-based
Procedure: as §2

T2 sequence (P33302 whole entry): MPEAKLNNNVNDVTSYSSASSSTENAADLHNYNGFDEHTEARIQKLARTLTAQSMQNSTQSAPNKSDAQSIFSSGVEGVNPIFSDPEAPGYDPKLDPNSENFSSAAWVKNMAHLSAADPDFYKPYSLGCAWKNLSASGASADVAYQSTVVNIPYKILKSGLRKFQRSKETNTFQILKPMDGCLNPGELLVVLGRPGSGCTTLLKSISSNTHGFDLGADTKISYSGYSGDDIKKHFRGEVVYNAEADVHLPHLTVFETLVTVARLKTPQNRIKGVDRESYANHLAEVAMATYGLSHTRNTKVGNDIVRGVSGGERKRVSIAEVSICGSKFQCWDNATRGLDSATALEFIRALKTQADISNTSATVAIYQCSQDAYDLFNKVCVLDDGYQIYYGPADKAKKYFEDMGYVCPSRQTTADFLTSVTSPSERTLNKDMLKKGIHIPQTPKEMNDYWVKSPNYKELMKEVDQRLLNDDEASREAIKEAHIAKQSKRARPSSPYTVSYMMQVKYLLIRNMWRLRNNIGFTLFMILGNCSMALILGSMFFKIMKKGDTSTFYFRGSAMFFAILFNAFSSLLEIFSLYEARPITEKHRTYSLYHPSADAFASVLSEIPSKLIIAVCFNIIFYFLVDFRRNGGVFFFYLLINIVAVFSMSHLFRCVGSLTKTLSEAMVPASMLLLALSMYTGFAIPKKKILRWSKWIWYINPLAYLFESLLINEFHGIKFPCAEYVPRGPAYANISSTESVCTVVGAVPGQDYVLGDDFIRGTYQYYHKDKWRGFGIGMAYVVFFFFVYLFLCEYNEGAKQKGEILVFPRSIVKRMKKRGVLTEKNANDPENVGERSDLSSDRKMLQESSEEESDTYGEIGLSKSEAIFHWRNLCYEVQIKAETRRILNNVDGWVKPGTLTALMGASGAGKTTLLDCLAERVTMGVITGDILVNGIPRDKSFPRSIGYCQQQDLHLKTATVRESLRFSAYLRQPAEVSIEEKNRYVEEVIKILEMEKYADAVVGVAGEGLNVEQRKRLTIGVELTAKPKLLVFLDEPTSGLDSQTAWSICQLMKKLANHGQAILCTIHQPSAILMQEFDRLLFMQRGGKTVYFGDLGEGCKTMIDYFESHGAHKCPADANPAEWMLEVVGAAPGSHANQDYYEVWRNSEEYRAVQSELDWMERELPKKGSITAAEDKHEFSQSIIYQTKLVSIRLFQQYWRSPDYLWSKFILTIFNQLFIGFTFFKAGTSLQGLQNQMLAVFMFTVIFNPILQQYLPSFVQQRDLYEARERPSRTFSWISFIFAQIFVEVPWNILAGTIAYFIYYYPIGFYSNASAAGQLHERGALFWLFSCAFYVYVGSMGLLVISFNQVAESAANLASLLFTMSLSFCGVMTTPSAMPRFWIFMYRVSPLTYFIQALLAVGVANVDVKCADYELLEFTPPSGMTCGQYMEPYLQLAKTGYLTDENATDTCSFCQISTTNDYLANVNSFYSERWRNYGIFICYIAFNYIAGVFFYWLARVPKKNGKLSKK
T1 sequence (P43071 whole entry Q214E/Y427F/T842S/I916V/L1021S/K1177E/E1416A): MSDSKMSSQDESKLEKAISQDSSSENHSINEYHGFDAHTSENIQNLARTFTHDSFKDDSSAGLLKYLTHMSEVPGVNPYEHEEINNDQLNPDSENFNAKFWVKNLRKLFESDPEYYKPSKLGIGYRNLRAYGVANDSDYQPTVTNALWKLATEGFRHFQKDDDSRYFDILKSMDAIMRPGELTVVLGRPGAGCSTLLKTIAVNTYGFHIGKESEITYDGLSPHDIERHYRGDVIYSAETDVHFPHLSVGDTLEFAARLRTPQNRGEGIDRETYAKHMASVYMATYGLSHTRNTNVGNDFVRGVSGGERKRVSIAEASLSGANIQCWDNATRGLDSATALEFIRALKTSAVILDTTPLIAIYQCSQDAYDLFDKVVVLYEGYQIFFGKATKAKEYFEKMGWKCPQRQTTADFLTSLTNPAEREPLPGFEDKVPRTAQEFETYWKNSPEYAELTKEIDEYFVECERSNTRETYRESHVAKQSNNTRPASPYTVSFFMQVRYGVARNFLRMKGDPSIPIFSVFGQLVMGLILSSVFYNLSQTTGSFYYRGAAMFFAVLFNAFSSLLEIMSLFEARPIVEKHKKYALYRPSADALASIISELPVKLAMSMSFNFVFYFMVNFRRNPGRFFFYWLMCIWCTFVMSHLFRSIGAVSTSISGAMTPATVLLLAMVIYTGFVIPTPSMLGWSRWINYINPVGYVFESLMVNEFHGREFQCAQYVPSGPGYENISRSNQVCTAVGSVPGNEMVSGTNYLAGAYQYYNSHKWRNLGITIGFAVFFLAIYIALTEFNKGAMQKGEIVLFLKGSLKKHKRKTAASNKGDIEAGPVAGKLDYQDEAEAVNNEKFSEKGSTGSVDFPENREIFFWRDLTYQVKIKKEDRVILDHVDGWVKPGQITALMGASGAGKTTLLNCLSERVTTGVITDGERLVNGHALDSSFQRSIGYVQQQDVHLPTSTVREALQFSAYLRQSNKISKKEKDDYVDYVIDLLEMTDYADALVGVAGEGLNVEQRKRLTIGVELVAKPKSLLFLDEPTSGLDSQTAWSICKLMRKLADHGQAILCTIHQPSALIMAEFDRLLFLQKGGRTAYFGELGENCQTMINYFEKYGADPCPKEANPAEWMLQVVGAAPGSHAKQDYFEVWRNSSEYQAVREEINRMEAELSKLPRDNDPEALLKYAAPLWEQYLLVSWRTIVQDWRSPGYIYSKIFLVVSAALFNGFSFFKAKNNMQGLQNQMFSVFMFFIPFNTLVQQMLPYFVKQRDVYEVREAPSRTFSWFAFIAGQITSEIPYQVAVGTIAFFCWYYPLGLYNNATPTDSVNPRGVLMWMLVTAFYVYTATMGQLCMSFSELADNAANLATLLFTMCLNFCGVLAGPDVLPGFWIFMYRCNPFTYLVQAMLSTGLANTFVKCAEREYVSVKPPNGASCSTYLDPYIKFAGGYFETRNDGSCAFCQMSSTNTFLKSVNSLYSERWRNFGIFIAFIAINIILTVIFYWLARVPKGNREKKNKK

Compound: OC(Cn1cncn1)(Cn1cncn1)c1ccc(F)cc1F [fluconazole]
- Chemosensitising concentration FCZ ([1]; with KN20): 3.75 µg/mL
- Chemosensitising concentration FCZ [2]: 0.25 µg/mL
- effect on oligomycin sensitive Cdr1p ATPase activity (Cdr1p ATPase; in vitro): does not affect
- Chemosensitising concentration FCZ [3]: 60 µg/mL
- effect on oligomycin sensitive Pdr5p ATPase activity (Pdr5p ATPase; in vitro): does not affect
- Chemosensitising concentration FCZ [4]: 0.125 µg/mL
- Chemosensitising concentration FCZ ([5]; with KN20): 1.25 µg/mL
- Chemosensitising concentration FCZ (C. tropicalis IFO0618): 10 µg/mL
- Chemosensitising concentration FCZ (C. krusei B2399): 80 µg/mL
- Chemosensitising concentration FCZ ([6]; with KN20): 20 µg/mL
- Chemosensitising concentration FCZ (C. albicans FR2 (Ben^Rp); with KN20): 8 µg/mL
- Chemosensitising concentration FCZ ([7]; with KN20): 40 µg/mL
- Chemosensitising concentration FCZ (C. dubliniensis CD36): 0.31 µg/mL
- Chemosensitising concentration FCZ (C. glabrata CBS138): 20 µg/mL

Compound: D-octapeptide NH2-Asn-Trp-Trp-Lys-Val-Arg-Arg-Arg-CONH2 with a single 4-methoxy-2,3,6-trimethylbenzenesulphonyl (Mtr) substituent on one tryptophan sidechain; Pdr5p inhibitor [KN20]
- Chemosensitising concentration KN20 [1]: 20 µM
- Fold-sensitisation by KN20 (For FCZ MIC) [1]: 16 fold
- Chemosensitising concentration KN20 ([2]; AD-ERG11 (Erg11p)): 20 µM
- Fold-sensitisation by KN20 (For FCZ MIC) ([2]; AD-ERG11 (Erg11p)): 8 fold
- IC50 (Cdr1p ATPase; AD1002 plasma membranes, read-out: 150 for oligomycin sensitive ATPase activity): ~8 µM
- Chemosensitising concentration KN20 ([3]; AD124567 (Pdr5p)): 20 µM
- Fold-sensitisation by KN20 (For FCZ MIC) ([3]; AD124567 (Pdr5p)): 10 fold
- KN20 concentration that chemosensitised the Pdr5p overexpressing strain to fluconazole ([3]; pH 7): 30 µM
- IC50 (Pdr5p ATPase; plasma membranes from AD124567 overexpressing Pdr5p, pH 7.5, read-out: 150 for oligomycin sensitive ATPase activity): ~3 µM
- Chemosensitising concentration KN20 ([4]; S. cerevisiae AD12345678u-): 7.5 µM
- Fold-sensitisation by KN20 (For FCZ MIC) ([4]; S. cerevisiae AD12345678u-): 2 fold
- Chemosensitising concentration KN20 [5]: 20 µM
- Fold-sensitisation by KN20 (For FCZ MIC) [5]: 16 fold
- Chemosensitising concentration KN20 (C. tropicalis IFO0618; C. tropicalis IFO0618): 10 µM
- Fold-sensitisation by KN20 (For FCZ MIC) (C. tropicalis IFO0618; C. tropicalis IFO0618, resistant tail eliminated): 16^a fold
- Chemosensitising concentration KN20 (C. krusei B2399; C. krusei B2399): 80 µM
- Fold-sensitisation by KN20 (For FCZ MIC) (C. krusei B2399; C. krusei B2399): 2.5 fold
- Chemosensitising concentration KN20 [6]: 20 µM
- Fold-sensitisation by KN20 (For FCZ MIC) [6]: 4 fold
- Chemosensitising concentration KN20 (C. albicans FR2 (Ben^Rp)): 20 µM
- Fold-sensitisation by KN20 (For FCZ MIC) (C. albicans FR2 (Ben^Rp)): 4 fold
- Chemosensitising concentration KN20 [7]: 15 µM
- Fold-sensitisation by KN20 (For FCZ MIC) [7]: 8 fold
- Chemosensitising concentration KN20 (C. dubliniensis CD36; C. dubliniensis CD36): 80 µM
- Fold-sensitisation by KN20 (For FCZ MIC) (C. dubliniensis CD36; C. dubliniensis CD36, resistant tail eliminated): 64.5^a fold
- Chemosensitising concentration KN20 (C. glabrata CBS138; C. glabrata CBS138): 40 µM
- Fold-sensitisation by KN20 (For FCZ MIC) (C. glabrata CBS138; C. glabrata CBS138): 4 fold
